The values below come from patent US20110263664A1, “Inhibitors of PIM-1 Protein Kinases, Compositions and Methods for Treating Prostate Cancer” (MUSC FOUNDATION FOR RESEARCH DEVELOPMENT, priority 2007, published 2011).

Holding throughout (format): biochemical
Experiment [1] addresses HGK (Homo sapiens, UniProt O95819). Description: Kinase selectivity, Table 5: HGK. The settings on record: read-out: selectivity data (inhibition), HGK.
The target in experiment [2] is SGK1 (Homo sapiens, UniProt O00141). The experiment can be described thus: Kinase selectivity, Table 5: SGK1. The settings on record: read-out: selectivity data (inhibition), SGK1.
The target of experiment [3] is BTK (Homo sapiens, UniProt Q06187). Description: Kinase selectivity, Table 5: BTK. The settings on record: read-out: selectivity data (inhibition), BTK.
In experiment [4] the target is GSK3β (Homo sapiens, UniProt P49841). The experiment can be described thus: Kinase selectivity, Table 5: GSK3β. Particulars: read-out: selectivity data (inhibition), GSK3β.
In experiment [5] the target is PDK1 (Homo sapiens, UniProt O15530). Description: Kinase selectivity, Table 5: PDK1. The settings on record: read-out: selectivity data (inhibition), PDK1.
In experiment [6] the target is LYN (Homo sapiens, UniProt P07948). Description: Kinase selectivity, Table 5: LYN. Particulars: read-out: selectivity data (inhibition), LYN.
For experiment [7], the target named is PRAK (Homo sapiens, UniProt Q8IW41). The experiment can be described thus: Kinase selectivity, Table 5: PRAK. Particulars: read-out: selectivity data (inhibition), PRAK.
For experiment [8], the target named is RSK1 (Homo sapiens, UniProt Q15418). The experiment can be described thus: Kinase selectivity, Table 5: RSK1. Particulars: read-out: selectivity data (inhibition), RSK1.
Chain of RSK1 (Q15418 whole entry, species assumed): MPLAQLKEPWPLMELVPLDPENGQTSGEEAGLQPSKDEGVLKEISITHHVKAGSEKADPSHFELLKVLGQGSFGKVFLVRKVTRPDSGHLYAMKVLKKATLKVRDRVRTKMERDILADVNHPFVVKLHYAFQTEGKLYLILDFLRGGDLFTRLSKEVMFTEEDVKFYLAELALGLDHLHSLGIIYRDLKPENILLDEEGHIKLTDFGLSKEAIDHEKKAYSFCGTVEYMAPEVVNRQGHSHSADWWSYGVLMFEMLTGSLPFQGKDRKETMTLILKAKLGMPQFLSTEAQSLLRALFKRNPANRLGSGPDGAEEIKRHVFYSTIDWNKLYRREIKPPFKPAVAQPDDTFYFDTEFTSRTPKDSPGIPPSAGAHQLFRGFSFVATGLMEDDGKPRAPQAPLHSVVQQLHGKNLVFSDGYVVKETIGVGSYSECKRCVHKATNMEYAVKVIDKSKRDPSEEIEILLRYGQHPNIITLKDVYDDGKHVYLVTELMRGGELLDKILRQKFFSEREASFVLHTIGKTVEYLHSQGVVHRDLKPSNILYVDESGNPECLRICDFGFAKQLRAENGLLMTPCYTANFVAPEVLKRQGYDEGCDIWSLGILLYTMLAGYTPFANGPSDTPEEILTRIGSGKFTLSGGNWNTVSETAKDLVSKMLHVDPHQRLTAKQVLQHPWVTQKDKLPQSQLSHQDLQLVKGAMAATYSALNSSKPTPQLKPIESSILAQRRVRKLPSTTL
Experiment [9] concerns the target IGF1R (Homo sapiens, UniProt P08069). Description: Kinase selectivity, Table 5: IGF1R. Particulars: read-out: selectivity data (inhibition), IGF1R.
Experiment [10] addresses p70S6K (Homo sapiens, UniProt P23443). The experiment can be described thus: Kinase selectivity, Table 5: p70S6K. The settings on record: read-out: selectivity data (inhibition), p70S6K.
Experiment [11] deals with KDR (Homo sapiens, UniProt P35968). The experiment can be described thus: Kinase selectivity, Table 5: KDR. Particulars: read-out: selectivity data (inhibition), KDR.
Experiment [12] deals with AKT3 (Homo sapiens, UniProt Q9Y243). Description: Kinase selectivity, Table 5: AKT3. Particulars: read-out: selectivity data (inhibition), AKT3.
Experiment [13] addresses JNK2 (Homo sapiens, UniProt P45984). The experiment can be described thus: Kinase selectivity, Table 5: JNK2. Particulars: read-out: selectivity data (inhibition), JNK2.
For experiment [14], the target named is MSK1 (Homo sapiens, UniProt O75582). Description: Kinase selectivity, Table 5: MSK1. The settings on record: read-out: selectivity data (inhibition), MSK1.
Chain of MSK1 (O75582 whole entry, species assumed): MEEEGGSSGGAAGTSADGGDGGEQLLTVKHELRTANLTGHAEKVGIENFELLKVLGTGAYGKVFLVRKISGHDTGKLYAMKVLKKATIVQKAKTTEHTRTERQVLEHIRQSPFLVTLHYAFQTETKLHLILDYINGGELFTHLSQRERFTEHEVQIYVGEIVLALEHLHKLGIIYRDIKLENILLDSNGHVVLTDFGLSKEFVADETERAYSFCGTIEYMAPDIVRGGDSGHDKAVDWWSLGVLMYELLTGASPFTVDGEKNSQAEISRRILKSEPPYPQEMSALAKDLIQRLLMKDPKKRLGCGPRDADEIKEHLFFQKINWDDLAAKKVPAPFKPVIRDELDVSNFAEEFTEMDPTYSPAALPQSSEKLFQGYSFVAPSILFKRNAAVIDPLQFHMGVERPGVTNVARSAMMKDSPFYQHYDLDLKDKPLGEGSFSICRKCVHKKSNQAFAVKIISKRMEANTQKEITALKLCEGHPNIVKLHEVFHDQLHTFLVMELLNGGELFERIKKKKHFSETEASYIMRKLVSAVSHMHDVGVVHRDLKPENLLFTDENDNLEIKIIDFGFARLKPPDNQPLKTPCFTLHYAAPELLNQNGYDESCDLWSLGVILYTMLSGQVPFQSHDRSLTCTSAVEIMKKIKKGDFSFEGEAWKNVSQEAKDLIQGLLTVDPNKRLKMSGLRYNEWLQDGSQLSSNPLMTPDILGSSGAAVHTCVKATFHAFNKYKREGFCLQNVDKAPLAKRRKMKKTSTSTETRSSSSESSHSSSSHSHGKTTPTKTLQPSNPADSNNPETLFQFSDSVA
Experiment [15] deals with AurA (Homo sapiens, UniProt O14965). The experiment can be described thus: Kinase selectivity, Table 5: AurA. Particulars: read-out: selectivity data (inhibition), AurA.
Experiment [16] deals with p38α (Homo sapiens, UniProt Q16539). Description: Kinase selectivity, Table 5: p38α. The settings on record: read-out: selectivity data (inhibition), p38α.
Experiment [17] has as its target Erk1 (Homo sapiens, UniProt P27361). The experiment can be described thus: Kinase selectivity, Table 5: Erk1. Particulars: read-out: selectivity data (inhibition), Erk1.
Experiment [18] addresses MST2 (Homo sapiens, UniProt Q13188). The experiment can be described thus: Kinase selectivity, Table 5: MST2. The settings on record: read-out: selectivity data (inhibition), MST2.
Experiment [19] deals with FLT3(D835Y) (Homo sapiens, UniProt P36888, D835Y). The experiment can be described thus: Kinase selectivity, Table 5: FLT3(D835Y). Particulars: read-out: selectivity data (inhibition), FLT3(D835Y).
For experiment [20], the target named is BMX (Homo sapiens, UniProt P51813). The experiment can be described thus: Kinase selectivity, Table 5: BMX. Particulars: read-out: selectivity data (inhibition), BMX.
Chain of BMX (P51813 whole entry, species assumed): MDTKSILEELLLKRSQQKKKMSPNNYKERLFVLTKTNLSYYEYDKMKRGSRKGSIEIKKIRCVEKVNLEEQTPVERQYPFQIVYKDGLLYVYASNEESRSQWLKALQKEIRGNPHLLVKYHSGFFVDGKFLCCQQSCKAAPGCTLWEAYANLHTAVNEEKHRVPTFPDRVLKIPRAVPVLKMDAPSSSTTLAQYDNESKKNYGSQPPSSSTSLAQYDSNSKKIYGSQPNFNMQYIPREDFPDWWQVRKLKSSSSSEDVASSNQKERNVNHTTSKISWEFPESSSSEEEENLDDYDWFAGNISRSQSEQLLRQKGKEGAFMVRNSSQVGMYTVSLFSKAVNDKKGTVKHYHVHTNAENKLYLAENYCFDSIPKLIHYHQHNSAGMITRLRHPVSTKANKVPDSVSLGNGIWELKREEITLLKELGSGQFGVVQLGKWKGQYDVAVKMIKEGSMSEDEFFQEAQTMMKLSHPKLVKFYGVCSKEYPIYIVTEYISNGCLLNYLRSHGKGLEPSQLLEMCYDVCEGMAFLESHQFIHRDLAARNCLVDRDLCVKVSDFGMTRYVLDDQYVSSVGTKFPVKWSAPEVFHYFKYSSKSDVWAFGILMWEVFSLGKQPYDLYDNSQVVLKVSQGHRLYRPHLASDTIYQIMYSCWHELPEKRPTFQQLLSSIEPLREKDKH
Experiment [21] has as its target PKD2 (Homo sapiens, UniProt Q9BZL6). Description: Kinase selectivity, Table 5: PKD2. The settings on record: read-out: selectivity data (inhibition), PKD2.
Experiment [22] has as its target MAPKAPK2 (Homo sapiens, UniProt P49137). The experiment can be described thus: Kinase selectivity, Table 5: MAPKAPK2. Particulars: read-out: selectivity data (inhibition), MAPKAPK2.
Experiment [23] concerns the target PKCβ2 (Homo sapiens, UniProt P05771). Description: Kinase selectivity, Table 5: PKCβ2. Particulars: read-out: selectivity data (inhibition), PKCβ2.

Chain of IGF1R (P08069 31-1367, species assumed): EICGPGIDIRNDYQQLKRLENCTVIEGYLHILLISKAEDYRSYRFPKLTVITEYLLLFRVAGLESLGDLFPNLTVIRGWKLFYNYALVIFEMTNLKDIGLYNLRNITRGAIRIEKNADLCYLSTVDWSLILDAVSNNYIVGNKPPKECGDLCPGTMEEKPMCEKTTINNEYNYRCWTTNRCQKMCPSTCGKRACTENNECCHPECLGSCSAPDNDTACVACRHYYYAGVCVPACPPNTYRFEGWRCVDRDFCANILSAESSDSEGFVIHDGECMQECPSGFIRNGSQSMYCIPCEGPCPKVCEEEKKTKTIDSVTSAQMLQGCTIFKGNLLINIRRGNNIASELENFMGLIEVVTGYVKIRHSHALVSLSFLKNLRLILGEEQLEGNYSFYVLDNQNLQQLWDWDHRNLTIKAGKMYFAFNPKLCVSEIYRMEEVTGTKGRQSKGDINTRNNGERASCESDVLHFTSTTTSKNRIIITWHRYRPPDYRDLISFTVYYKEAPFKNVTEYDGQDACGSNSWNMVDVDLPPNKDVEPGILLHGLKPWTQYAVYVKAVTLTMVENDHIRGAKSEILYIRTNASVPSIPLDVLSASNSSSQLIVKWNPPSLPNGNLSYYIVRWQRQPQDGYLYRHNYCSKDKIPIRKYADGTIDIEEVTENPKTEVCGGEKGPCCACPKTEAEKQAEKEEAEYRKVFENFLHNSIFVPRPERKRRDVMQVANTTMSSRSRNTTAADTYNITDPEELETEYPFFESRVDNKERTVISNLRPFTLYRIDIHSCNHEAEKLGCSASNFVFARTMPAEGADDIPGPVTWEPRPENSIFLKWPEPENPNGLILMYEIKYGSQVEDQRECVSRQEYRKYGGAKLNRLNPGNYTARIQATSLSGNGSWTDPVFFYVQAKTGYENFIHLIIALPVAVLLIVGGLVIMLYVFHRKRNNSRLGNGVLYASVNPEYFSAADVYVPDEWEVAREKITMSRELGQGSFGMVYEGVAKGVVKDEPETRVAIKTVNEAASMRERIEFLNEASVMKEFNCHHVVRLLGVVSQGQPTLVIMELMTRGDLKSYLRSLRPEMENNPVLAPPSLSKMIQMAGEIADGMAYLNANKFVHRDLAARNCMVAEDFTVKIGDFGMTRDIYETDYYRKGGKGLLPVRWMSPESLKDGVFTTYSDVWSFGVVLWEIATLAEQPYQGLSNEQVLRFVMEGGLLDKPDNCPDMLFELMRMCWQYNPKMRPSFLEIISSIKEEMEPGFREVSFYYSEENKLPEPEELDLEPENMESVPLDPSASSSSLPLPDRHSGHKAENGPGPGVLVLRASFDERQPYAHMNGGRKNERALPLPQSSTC
Chain of PKD2 (Q9BZL6 whole entry): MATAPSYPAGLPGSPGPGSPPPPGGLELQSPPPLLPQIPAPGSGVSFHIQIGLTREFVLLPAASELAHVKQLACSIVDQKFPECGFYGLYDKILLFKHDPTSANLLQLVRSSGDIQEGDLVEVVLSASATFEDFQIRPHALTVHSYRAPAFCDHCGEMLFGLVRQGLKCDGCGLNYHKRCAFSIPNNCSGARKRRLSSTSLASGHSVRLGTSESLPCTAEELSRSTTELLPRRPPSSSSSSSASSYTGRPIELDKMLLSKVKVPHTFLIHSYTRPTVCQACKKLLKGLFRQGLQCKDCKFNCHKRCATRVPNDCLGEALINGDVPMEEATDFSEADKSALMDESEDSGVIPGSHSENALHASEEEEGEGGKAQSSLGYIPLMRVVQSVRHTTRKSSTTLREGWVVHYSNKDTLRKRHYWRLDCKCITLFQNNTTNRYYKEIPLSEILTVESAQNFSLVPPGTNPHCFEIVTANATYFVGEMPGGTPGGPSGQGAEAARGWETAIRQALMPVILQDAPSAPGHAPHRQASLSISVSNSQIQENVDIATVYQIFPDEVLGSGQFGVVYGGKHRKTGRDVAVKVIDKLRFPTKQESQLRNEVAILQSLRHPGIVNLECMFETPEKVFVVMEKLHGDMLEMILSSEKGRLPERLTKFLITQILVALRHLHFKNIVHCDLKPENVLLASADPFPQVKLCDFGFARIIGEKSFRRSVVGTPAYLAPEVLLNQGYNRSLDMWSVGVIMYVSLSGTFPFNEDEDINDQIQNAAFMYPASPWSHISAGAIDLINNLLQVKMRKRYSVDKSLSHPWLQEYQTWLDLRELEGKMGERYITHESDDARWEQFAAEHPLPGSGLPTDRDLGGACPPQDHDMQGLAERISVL
Chain of Erk1 (P27361 whole entry, species assumed): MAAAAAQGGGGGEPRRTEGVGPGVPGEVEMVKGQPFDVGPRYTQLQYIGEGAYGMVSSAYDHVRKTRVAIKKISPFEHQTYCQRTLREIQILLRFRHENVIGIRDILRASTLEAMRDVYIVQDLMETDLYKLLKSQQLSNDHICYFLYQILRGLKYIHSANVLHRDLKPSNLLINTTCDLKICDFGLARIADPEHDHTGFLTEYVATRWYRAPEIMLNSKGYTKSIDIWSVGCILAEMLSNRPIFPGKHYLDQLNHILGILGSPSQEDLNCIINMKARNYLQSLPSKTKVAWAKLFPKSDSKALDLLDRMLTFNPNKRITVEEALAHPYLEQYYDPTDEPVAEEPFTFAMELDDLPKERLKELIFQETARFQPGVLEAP

As to `CC(C)c1ccc(C=C2SC(=O)NC2=O)cc1` [5-(4-iso-propylbenzylidene)thiazolidine-2,4-dione], the inhibition – broadly, the drop in the measured response relative to a control, in per cent – at 5 µM was determined as 9% in experiment [1]; 5% in [2]; 7% in [3]; 3% in [4]; 1% in experiment [5]; 8% in experiment [6]. Also, the inhibition at 5 µM in experiment [7] is 4%; in experiment [8], 5%; in experiment [9], -1%; in [10], 8%; in [11], -4%; in experiment [12] it was 3%. Also, the inhibition at 5 µM in [13] is 14%; in experiment [14] it was -1%; in experiment [15] it was 4%; in [16] it was 0%; in experiment [17] it was 1%; in experiment [18] it was 1%. The inhibition at 5 µM in experiment [19] is 9%; in [20], 10%; in experiment [21] it was -3%; in experiment [22], 5%; in experiment [23], -1%.
